Experimental findings from patent US20250152743A1, “SYNPOPTOSIS CIRCUITS FOR PROGRAMMABLE CELL DEATH CONTROL” (California Institute of Technology, priority 2023, published 2025) are described below.

“Also recorded” adds a separate entry of the source.

Holding throughout (type): cell-based, human
Test [1] deals with HEK293FT cells. As to the kind of experiment: Co-transfection time course, cell death every 24 h over 4 days. Conditions: P3/P4-zipper reconstituted TEVP. As to the method:
Moreover, it was evaluated if some of these mutations affect the maximal caspase activation accessible and the time dependency between caspase activation and cell death by co-transfecting (i) input proteases (P3/P4-zipper reconstituted TEVP as a positive control, split TEVP without reconstitution domain as a negative control, or NeoR to evaluate caspase baseline activity; all with IRES-BFP to enable expression tracking) and (ii) output caspase (“ENLYFQS” (SEQ ID NO: 2)/“ENLYFQQ” (SEQ ID NO: 4)/“ENLFFQQ” (SEQ ID NO: 7)+co-transfected GFP for expression tracking) in HEK293FT cells and measuring cell death every 24 h over the course of 4 days.

In test [2] the test system is HEK293FT cells. As to the kind of experiment: Polytransfection of input proteases and caspase cleavage-site variants, Annexin staining. Conditions: order, decreasing: ENLFFQQ; ENLFFQY; ENLYFQS+TEVP-cleavable DHFR; ENLFFQS~ENLYFQY~ENLYFQQ; ENLYFQS; both TEVP and TVMVP cleavage site. An excerpt: The cleavage efficiency of proteases is known to depend on corresponding accessible cleavage sites. Mutations to native protease cleavage sites can slow (i) the recruitment of substrates to the protease active site, (ii) catalytic reaction steps, or (iii) the release of the substrate from the protease. As described herein, this property to modulate cell death executioner activation thresholds. Specifically, we surveyed the following constructs with modified protease cleavage sites across a wide range of possible cell death executioner and input protease expression regimes:
Caspase 3 with ENLYFQS TEVP protease cleavage site (native protease cleavage site is ENLYFQG/S, SEQ ID NOs: 1-2), which serves as a control; Caspase 3 with ENLYFQY (SEQ ID NO: 3) TEVP protease cleavage site; Caspase 3 with ENLYFQQ (SEQ ID NO: 4) TEVP protease cleavage site; Caspase 3 with ENLFFQS (SEQ ID NO: 5) TEVP protease cleavage site; Caspase 3 with ENLFFQY (SEQ ID NO: 6) TEVP protease cleavage site; Caspase 3 with ENLFFQQ (SEQ ID NO: 7) TEVP protease cleavage site; Caspase 3 with both native TEVP and TVMVP cleavage sites separated by linker; Caspase 3 with native TEVP cleavage site fused to C-terminal TEVP-cleavable DHFR degron.
To evaluate how the mutated protease cleavage sites affect Caspase 3 activation, we polytransfected (i) input proteases (P3/P4-zipper reconstituted TEVP as a positive control, split TEVP without reconstitution domain as a negative control, or NeoR to evaluate caspase baseline activity; all with IRES-BFP to enable expression tracking) and (ii) output caspase (caspase+co-transfected GFP for expression tracking) in HEK293FT cells. Annexin staining as described above in Example 1 was used to quantify cell death.

Test [3] concerns HEK cells. As to the kind of experiment: Q-VD-OPh on circuit-induced cell death, flow cytometry. The settings on record: Q-VD-OPh 30 μM. As to the method:
Then, because naturally occurring cell death can be modulated by small-molecule compounds, the effect of Q-VD-OPh, a caspase inhibitor, on synpoptosis circuits was investigated (FIG. 2C). […] It was also asked whether cells treated with synpoptosis circuits stain positive for TO-PRO-3, a dye that enters apoptotic cells through pannexin channels and pyroptotic cells through permeabilized membranes.
On the day before transfection, HEK cells were seeded at a density of 0.3-0.6 million cells per well on a 12-well plate, 0.1-0.3 million cells per well on a 24-well plate, or 15,000-50,000 cells per well on a 96-well plate. The cells were allowed to attach to the plate overnight, for at least 8 hours. On the day of transfection, we treated the cells with purified DNA plasmids encoding circuit components. In addition to plasmids encoding circuit components, we often included a plasmid encoding a fluorescent co-transfection marker, at roughly 50 ng DNA per well on a 24-well plate. Given the different number of molecular components in each synthetic circuit and their various relative ratios, the total amount of DNA ranged from 50 to 1 μg per well on a 24-well plate, and was scaled by 0.5 or 4 when other 12-well or 96-well plates were used, respectively. […]
For orientation: In flow cytometry, cells or beads pass a laser one at a time.

Test [4] concerns HEK cells. Briefly: Transient DNA transfection of HEK cells, Annexin/Sytox staining, flow cytometry. Conditions: tev, tvmv and hcv sites. Here is the method: HEK cells were transiently co-transfected with DNA encoding the circuits, often along with Cherry, a fluorescent protein marker, and cells were analyzed by flow cytometry 16 to 24 hours later. To quantify cell death, the cells were strained with Annexin, Sytox, or both. Annexin stains apoptotic cells by binding to phosphatidylserine exposed on the outer leaflet, and pyroptotic cells by binding to phosphatidylserine in the inner leaflet after membrane permeabilization. In contrast, Sytox, a membrane-impermeable dye, primarily stains pyroptotic cells. Therefore, apoptotic cells are typically Annexin-high and Sytox-low, while pyroptotic cells are Annexin-high and Sytox-high (FIG. 7B). For simplicity, in experiments involving only a single death mode, a single relevant dye was often used. To focus on cells influenced by the circuits, the fraction of Annexin- or Sytox-positive cells was calculated after gating on the fluorescent co-transfection marker (FIG. 7C).
On the day before transfection, HEK cells were seeded at a density of 0.3-0.6 million cells per well on a 12-well plate, 0.1-0.3 million cells per well on a 24-well plate, or 15,000-50,000 cells per well on a 96-well plate. The cells were allowed to attach to the plate overnight, for at least 8 hours. On the day of transfection, we treated the cells with purified DNA plasmids encoding circuit components. […]

Turning to “ENLFFQQ: caspase 3 with modified TEVP cleavage site (left off: small tags and cut ends)”, the “maximal caspase activation / maximal fraction of dead cells” value in the test on HEK293FT cells [1] is recorded as “reduces the maximum activation to a degree where the complete killing of the cell population is not possible anymore”. Besides, in the test on HEK293FT cells [2], the “input/output expression required for caspase activation (activation threshold)” value is reported as “requires the highest input/output expression for activation”.
In the same order, the values of “ENLYFQQ: caspase 3 with modified TEVP cleavage site (left off: small tags and cut ends)” are “comparable maximal fraction of dead cells” and “in decreasing order”.
With `CC(C)[C@H](NC(=O)c1ccc2ccccc2n1)C(=O)N[C@@H](CC(=O)O)C(=O)COc1c(F)cccc1F` [Q-VD-OPh, Quinoline-Val-Asp-Difluorophenoxymethylketone], in the test with HEK cells [3], the “apoptosis induced by the caspase-3 circuit” value is “suppressed circuit-induced apoptosis; also recorded: markedly attenuated apoptosis” and the “pyroptosis mediated by the GSDMA circuit” value is reported as “did not affect pyroptosis”.
On to “ENLFFQY: caspase 3 with modified TEVP cleavage site (left off: small tags and cut ends)”, for which the “input/output expression required for caspase activation (activation threshold)” value in the test with HEK293FT cells [2] is “in decreasing order”.
Still for that read-out and setting: as for “ENLYFQY: caspase 3 with modified TEVP cleavage site (left off: small tags and cut ends)”, the entry is “in decreasing order”.
Regarding “hepatitis C virus protease [HCVP, reference compound]”, in the test with HEK cells [4], the “activation of cognate engineered GSDMs containing the cleavage sites” value is given as “orthogonally activated their cognate engineered GSDMs”.
